According to patent EP0403249A1, “Leukotriene antagonists” (SMITHKLINE BEECHAM CORPORATION, priority 1989, dated 1990):

What follows are compounds tested on LTD₄ (assay: Inhibition of leukotriene (LTD₄) induced contraction of guinea pig tracheal tissues in vitro). Conditions: LTD₄ concentration-response on guinea pig tracheal spiral strips, 30 minutes pretreatment with test compound, EC₃₀ shift; current average where tested more than once.
Method: The leukotriene antagonist activity of the compounds of this invention is measured by the ability of the compounds to inhibit the leukotriene induced contraction' of guinea pig tracheal tissues in vitro. The following methodology was employed: In vitro: Guinea pig (adult male albino Hartley strain) tracheal spiral strips of approximate dimensions 2 to 3 mm cross-sectional width and 3.5 cm length were bathed in modified Krebs buffer in jacketed 10 ml tissue bath and continuously aerated with 95% 0₂/5% CO₂. The tissues were connected via silk suture to force displacement transducers for recording isometric tension. The tissues were equilibrated for 1 hr., pretreated for 15 minutes with meclofenamic acid (1uM) to remove intrinsic prostaglandin responses, and then pretreated for an additional 30 minutes with either the test compound or vehicle control. A cumulative concentration-response curve for LTD₄ on triplicate tissues was generated by successive increases in the bath concentration of the LTD₄. In order to minimize intertissue variability, the contractions elicited by LTD₄ were standardized as a percentage of the maximum response obtained to a reference agonist, carbachol (10uM).
Calculations: The averages of the triplicate LTD₄ concentration-response curves both in the presence and absence of the test compound were plotted on log graph paper. The concentration of LTD₄ needed to elicit 30% of the contraction elicited by carbachol was measured and defined as the EC₃₀. The -log KB value for the test compound was determined by the following equations: [formula] 2. KB= concentration of test compound/(X-1)
The antagonist activity of representative compounds of this invention is listed in Table I. The -log KB values were calculated from the above protocol. Where compounds were tested more than once, the -log KB values given here represent the current average data.

Q: `O=C(O)c1ccc(CSC(c2ccccc2CCCCCCCCc2ccccc2)C(O)C(=O)O)c(F)c1` (stereo not shown) [8), 2-Hydroxy-3-(2-fluoro-4-carboxyphenylmethylthio)-3-[2-(8-phenyloctyl)phenyl]propionic acid] was tested. Which “In Vitro-Log KB” value did it give?
A: The value was 7.8.

Q: How did the “In Vitro-Log KB” value turn out when `COc1cc(C(=O)O)ccc1CSC(CC(=O)O)c1ccccc1CCCCCCCCc1ccccc1` (stereo not shown) [12), 3-(4-Carboxy-2-methoxyphenylmethylthio)-3-[2-(8-phenyloctyl)phenyl]propionic acid] was run?
A: Its value is 7.5.

Q: `O=C(O)c1ccc(CSC(c2ccccc2CCCCCCCCc2ccccc2)C(O)C(=O)O)cc1` (stereo not shown) [7), 2-Hydroxy-3-(4-carboxyphenylmethylthio)-3-[2-(8-phenyloctyl)phenyl]propionic acid] was tested. Which “In Vitro-Log KB” value did it give?
A: Its value is 7.1.

Q: For `COc1ccc(C(=O)O)cc1CSC(c1ccccc1CCCCCCCCc1ccccc1)C(O)C(=O)O` (stereo not shown) [13), 2-Hydroxy-3-[(5-carboxy-2-methoxyphenylmethyl)thio]-3-[2-(8-phenyloctyl)phenyl]propionic acid], which “In Vitro-Log KB” value is on record?
A: The value was 6.5.

Q: Which “In Vitro-Log KB” value does the source give for `O=C(O)c1cccc(CS[C@H](c2ccccc2CCCCCCCCc2ccccc2)[C@@H](O)C(=O)O)c1` [3), 2(S)-Hydroxy-3(R)-(3-carboxyphenylmethylthio)-3-[2-(8-phenyloctyl)phenyl]propionic acid] here?
A: The value was 6.6.

Q: With `O=C(O)c1ccccc1SC(c1ccccc1CCCCCCCCc1ccccc1)C(O)C(=O)O` (stereo not shown) [1), 2-Hydroxy-3-(2-carboxyphenylthio)-3-[2-(8-phenyloctyl)phenyl]propionic acid] as the compound, how does the “In Vitro-Log KB” value read?
A: The value was 5.5.

Q: How did the “In Vitro-Log KB” value turn out when `O=C(O)c1cccc(SC(c2ccccc2CCCCCCCCc2ccccc2)C(O)C(=O)O)c1` (stereo not shown) [4), 2-Hydroxy-3-(3-carboxyphenylthio)-3-[2-(8-phenyloctyl)phenyl]propionic acid] was run?
A: The value was 7.0.

Q: How did the “In Vitro-Log KB” value turn out when `COC(C(=O)O)C(Sc1ccc(C(=O)O)cc1)c1ccccc1CCCCCCCCc1ccccc1` (stereo not shown) [9), 2-Methoxy-3-(4-carboxyphenylthio)-3-[2-(8-phenyloctyl)phenyl]propionic acid] was run?
A: Its value is 7.6.

Q: With `COc1cc(C(=O)O)ccc1CSC(c1ccccc1CCCCCCCCc1ccccc1)C(O)C(=O)O` (stereo not shown) [6), 2-Hydroxy-3-(4-carboxy-2-methoxyphenylmethylthio)-3-[2-(8-phenyloctyl)phenyl]propionic acid] as the compound, how does the “In Vitro-Log KB” value read?
A: Its value is 7.9.

Q: With `COc1cc(C(=O)O)ccc1CSC(c1ccccc1CCCCCCCCc1ccccc1)C(OC)C(=O)O` (stereo not shown) [11), 2-Methoxy-3-(4-carboxy-2-methoxyphenylmethylthio)-3-[2-(8-phenyloctyl)phenyl]propionic acid] as the compound, how does the “In Vitro-Log KB” value read?
A: Its value is 7.4.

Q: How did the “In Vitro-Log KB” value turn out when `O=C(O)c1ccccc1CS[C@H](c1ccccc1CCCCCCCCc1ccccc1)[C@@H](O)C(=O)O` [2), 2(S)-Hydroxy-3(R)-(2-carboxyphenylmethylthio)-3-[2-(8-phenyloctyl)phenyl]propionic acid] was run?
A: Its value is 6.2.

Q: `O=C(O)C(O)C(Sc1ccc(O)cc1)c1ccccc1CCCCCCCCc1ccccc1` (stereo not shown) [10), 2-Hydroxy-3-(4-hydroxyphenylthio)-3-[2-(8-phenyloctyl)phenyl]propionic acid] was tested. Which “In Vitro-Log KB” value did it give?
A: The value was 5.9.

Q: Which “In Vitro-Log KB” value does the source give for `O=C(O)c1ccc(SC(c2ccccc2CCCCCCCCc2ccccc2)C(O)C(=O)O)cc1` (stereo not shown) [5), 2-Hydroxy-3-(4-carboxyphenylthio)-3-[2-(8-phenyloctyl)phenyl]propionic acid] here?
A: The value was 7.6.
